According to the supplement of paper PMC10307832:

How the values were obtained:
[1] = compound: CC1=CC(=CC=C1)NC2=NC(=CS2)C3=CC=NC=C3 + COc1cc2c(Oc3ccc(NC(=O)C4(C(=O)Nc5ccc(F)cc5)CC4)cc3F)ccnc2cc1OCCCN1CCOCC1 [Foretinib] (partner 0.25 µM); assay: relative viability (nuclei count vs DMSO), 5 days (fraction); higher = more cells survive
How it was run: (§1)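 One day after seeding in 1536-well plates, lung cancer cell lines were dosed by pin tool. Dosing was either single-drug or a fixed anchor-drug dose plus five library-drug doses (not always all listed) in √10 steps. After 5 days, nuclei were stained in one fix-and-stain step and counted on 4× images, and relative viability is the nuclei count of treated wells over that of vehicle wells, given as the median of duplicate plates.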

Masitinib + Tozasertib = compound: Cc1ccc(NC(=O)c2ccc(CN3CCN(C)CC3)cc2)cc1Nc1nc(-c2cccnc2)cs1 [Masitinib] + Cc1cc(Nc2cc(N3CCN(C)CC3)nc(Sc3ccc(NC(=O)C4CC4)cc3)n2)n[nH]1 [Tozasertib] (partner 0.1 µM); assay: as above
How it was run: as §1

| Cell Line | relative viability ([1]; first compound 0.08 µM) | relative viability ([1]; first compound 0.253 µM) | relative viability ([1]; first compound 0.8 µM) | relative viability ([1]; first compound 2.53 µM) | relative viability ([1]; first compound 8 µM) | relative viability (Masitinib + Tozasertib; first compound 0.01 µM) | relative viability (Masitinib + Tozasertib; first compound 0.03162 µM) | relative viability (Masitinib + Tozasertib; first compound 0.1 µM) | relative viability (Masitinib + Tozasertib; first compound 0.3162 µM) | relative viability (Masitinib + Tozasertib; first compound 1 µM) |
| --- | --- | --- | --- | --- | --- | --- | --- | --- | --- | --- |
| NCI-H647 | 0.994 | 1.15 | 1.03 | 1.17 | 1.1 | 0.212 | 0.209 | 0.394 | 0.261 | 0.232 |
| NCI-H838 | 0.838 | 0.861 | 0.923 | 1.04 | 0.866 | 0.25 | 0.281 | 0.273 | 0.206 | 0.236 |
| H3255 | 0.895 | 0.464 | 0.909 | 0.822 | 0.875 | 0.437 | 0.712 | 0.502 | 0.687 | 0.608 |
| NCI-H1793 | 0.65 | 0.663 | 0.573 | 0.64 | 0.629 | 0.337 | 0.309 | 0.33 | 0.238 | 0.256 |
| NCI-H1563 | 0.772 | 0.962 | 0.974 | 0.912 | 0.765 |  |  |  |  |  |
| NCI-H2342 | 0.889 | 1.03 | 0.949 | 1.08 | 1.14 | 0.464 | 0.51 | 0.523 | 0.514 | 0.469 |
| LXF-289 | 0.926 | 1.03 | 0.994 | 0.938 | 0.823 | 0.214 | 0.174 | 0.2 | 0.232 | 0.177 |
| SW 900 | 1.05 | 0.89 | 0.797 | 0.756 | 0.851 | 0.58 | 0.608 | 0.542 | 0.442 | 0.455 |
| HCC-827 | 1.02 | 1 | 0.997 | 1.02 | 0.958 | 0.378 | 0.444 | 0.444 | 0.457 | 0.514 |
| LK-2 |  | 1.18 | 1.36 |  | 1.67 | 0.177 | 0.167 | 0.177 | 0.158 | 0.165 |
| HCC-366 | 0.859 | 0.89 | 0.883 | 0.885 | 0.9 |  | 0.0721 |  | 0.0725 | 0.0736 |
| BEN | 0.615 | 0.435 | 0.624 | 0.392 | 0.629 | 0.481 | 0.506 | 0.561 | 0.483 | 0.481 |
| NCI-H2347 | 0.926 | 0.721 | 0.855 | 0.994 | 0.842 | 0.379 | 0.457 | 0.536 | 0.563 | 0.394 |
| NCI-H1395 | 0.859 | 0.918 | 0.933 | 0.958 | 1 | 0.713 | 0.678 | 0.828 | 0.782 | 0.624 |
| A549 | 0.882 | 0.914 | 0.871 | 0.866 | 0.802 |  |  |  |  |  |
| 201T | 0.835 |  | 0.939 | 0.759 | 0.871 | 0.711 | 1.01 | 0.85 | 0.789 | 0.926 |
| NCI-H358 | 0.699 | 0.797 | 0.671 | 0.934 | 0.566 | 0.118 | 0.0987 | 0.114 | 0.113 | 0.104 |
| NCI-H520 | 0.773 | 0.778 | 0.71 | 0.647 | 0.938 | 0.368 | 0.476 | 0.566 | 0.451 | 0.358 |
